According to patent US4342774A, “N-Acylcarnosine aluminum salt, its preparation, and a digestive ulcer remedy containing such salt” (Nippon Chemiphar Co., Ltd., priority 1979, dated 1982):
Several values for one entry are separate records, joined by “and”; a condition that tells them apart may be missing. Identical values can stand only once. Counter-ions that a name gives are not always drawn.

Columns and labels:
[1] = Acute toxicity, oral, rats; type: in vivo; details: rat, in vivo, po; P.O., male rats, observed seven days
Procedure: (§1) Acute toxicity: Male and female Wister strain rats each weighing 150 to 200 g were divided into two groups, respectively, each group consisting of ten rats, and were administered orally with some of the N-acylcarnosine aluminum compounds according to the invention. The thus treated rats were visually observed for seven days after the administration.

[2] = system: rats; assay: Acute toxicity, oral, rats; type: in vivo; details: P.O., female rats, observed seven days; 10080 min
Procedure: as §1

[3] = system: Aspirin-induced ulcer; assay: Aspirin-induced ulcer, inhibitory effect, rats; type: in vivo, rat (male Donryu strain); details: 1,000 mg/kg, P.O.; for Ulcer index (total length of all lesions): immediately after pylorus ligation, aspirin 100 mg/kg; for % Inhibition: vs control of the same run
Procedure: (§2) It will be noted that as control compounds for the purposes of comparison, use was made of L-carnosine, L-glutamine, N-acetyl-L-glutamine aluminum and aluminum sucrose sulfate which are known to have an anti-ulcer effect. The anti-ulcer effects and degrees of toxicity of the N-acylcarnosine aluminum compounds according to the invention were determined using rats in which instances various gastric ulcer models of rats were utilized to estimate the anti-ulcer effects.
Aspirin-induced ulcer: Groups of ten male Donryu strain rats each weighing 220 to 230 g were deprived of food for 24 hours. The pylorus of each rat was ligated under ether anethesia according to the method of S. Okabe et al [Jap. J. Pharmac. 24, 357-361 (1974)]. After the pylorus ligation, aspirin (100 mg/kg) was administered orally to each rat. Seven hours after the administration, each of the animals was sacrificed under ether anesthesia to remove its stomach. After collection of the gastric juice and treatment with a 1% formalin solution, the length (mm) of each lesion formed in the glandular portion was measured. The total length (mm) of all the lesions of each rat was indicated as an ulcer index. Test medicine samples were given orally immediately after the pylorus ligation.

[4] = system: Histamine-induced ulcer; assay: Histamine-induced ulcer, inhibitory effect, rats; type: in vivo, rat (male Donryu strain); details: P.O.; for Ulcer index (total length of all lesions): before histamine phosphate 300 mg/kg i.p.; for % Inhibition: vs control of the same run
Procedure: (§3) The anti-ulcer effects and degrees of toxicity of the N-acylcarnosine aluminum compounds according to the invention were determined using rats in which instances various gastric ulcer models of rats were utilized to estimate the anti-ulcer effects.
Histamine-induced ulcer: Groups of ten male Donryu strain rats each weighing 210 to 230 g were deprived of food for 48 hours and then administered intraperitoneally with histamine phosphate (300 mg/kg). Four hours after the administration, each of the animals was sacrificed under ether anesthesia, followed by removal of the stomach and immersion in a 1% formalin solution for ten minutes. The stomach which had been semi-fixed was incised along the greater curvature, and the length (mm) of each lesion was measured under a dissecting microscope (10×). The total length (mm) of all the lesions of each rat was indicated as an ulcer index. Test medicine samples were given orally before the histamine administration.

[5] = system: Shay's ulcer; assay: Shay's ulcer (pylorus ligation), inhibitory effect, rats; type: in vivo, rat (male Donryu strain); details: P.O.; for Ulcer index (total area of all lesions) / % Inhibition: 1,000 mg/kg; for Ulcer index (total area of all lesions): immediately after pylorus ligation; for inhibition in vivo at 1000 mg/kg: 14 h, 1,000 mg/kg
Procedure: as §2
Shay's ulcer: Groups of ten male Donryu strain rats each weighing 210 to 230 g were deprived of food for 48 hours. The pylorus of each rat was ligated according to the method of Shay et al [Gastroenterology, 5, 43-61 (1945)]. Each of the animals was allowed to stand abstained from food and water for further 14 hours and then sacrificed to remove its stomach. After collection of the gastric juice, the ulcerated area (mm^2) in the forestomach of each rat was measured under a dissecting microscope (10x). The total area (mm^2) of all the lesions of each rat was indicated as an ulcer index. Test medicine samples were given orally immediately after the pylorus ligation.

[6] = system: Stress ulcer; assay: Stress ulcer (water immersion restraint), inhibitory effect, rats; type: in vivo, rat (male Donryu strain); details: P.O.; for Ulcer index (total length of all lesions): ten minutes before immersion; for % Inhibition: vs control of the same run
Procedure: as §3
Stress ulcer: Groups of ten male Donryu strain rats each weighing 240 to 260 g were placed in a stress cage which served to immobilize the animals therein and then immersed in a water bath of 23° C. on a level with the xiphoid process according to the method of K. Takagi et al [Jap. […] Seven hours after the immersion, each of the animals was withdrawn from the water bath and immediately sacrificed by a blow on the head, followed by removal of the stomach of each rat. The stomach was slightly inflated by injecting a 1% formalin solution and then immediately immersed in a 1% formalin solution, followed by incising the stomach along its greater curvature to measure the length (mm) of each lesion in the glandular portion under a dissecting microscope (10x). The total length (mm) of all the lesions of each rat was indicated as an ulcer index. Test medicine samples were given orally ten minutes before the immersion in water.

[7] = system: Indomethacin-induced ulcer; assay: Indomethacin-induced ulcer, inhibitory effect, rats; type: in vivo, rat (male Donryu strain); details: 300 mg/kg, P.O.; for Ulcer index (total length of all lesions): ten minutes before pylorus ligation, indomethacin 25 mg/kg s.c.; for % Inhibition: vs control of the same run
Procedure: as §2
Indomethacin-induced ulcer: Groups of ten male Donryu strain rats each weighing 200 to 215 g were deprived of food for 24 hours. Then, the pylorus was ligated under ether anethesia, after which indomethacin was administered subcutaneously in an amount of 25 mg/kg to each rat. Seven hours after the administration, each of the animals was scarificed under ether anethesia to remove its stomach, followed by immersion in a 1% formalin solution for ten minutes. The stomach which had been semi-fixed was incised along its greater curvature, and the length (mm) of each lesion formed in the mucous membrane was measured under a dissecting microscope (10×). The total length (mm) of all the lesions of each rat was indicated as an ulcer index. Test medicine samples were given orally ten minutes before the pylorus legation.

[8] = Rattus norvegicus, po, vs control of the same run

| Compound | Ulcer index (total length of all lesions) [3] | % Inhibition [3] | Ulcer index (total length of all lesions) ([4]; 300 mg/kg) | % Inhibition ([4]; 300 mg/kg) | Ulcer index (total area of all lesions) [5] | inhibition in vivo at 1000 mg/kg [5, 8] [%] | Ulcer index (total length of all lesions) ([6]; 1,000 mg/kg) | % Inhibition ([6]; 1,000 mg/kg) | Ulcer index (total length of all lesions) [7] | % Inhibition [7] | % Inhibition ([5]; vs control of the same run) | also measured |
| --- | --- | --- | --- | --- | --- | --- | --- | --- | --- | --- | --- | --- |
| CC(=O)NCCC(=O)NC(Cc1c[nH]cn1)C(=O)O (racemic) [A, N-acetyl-DL-carnosine aluminum salt] | 0.6 ± 0.6 mm | 96.6% | 9.6 ± 1.8 mm | 60.2% | 0.5 ± 0.5 mm^2 | 79.2 | 4.4 ± 2.2 mm | 71.1% | 6.5 ± 2.2 mm | 60.1% |  | LD50 at 168 h [1]: > 10000 mg/kg; LD50 [2]: > 10,000 mg/kg; Ulcer index (total length of all lesions) ([6]; 300 mg/kg): 8.0 ± 2.8 mm; % Inhibition ([6]; 300 mg/kg): 47.4% |
| CC(=O)NCCC(=O)N[C@@H](Cc1c[nH]cn1)C(=O)O [B, N-acetyl-L-carnosine aluminum salt] | 0.6 ± 0.6 mm | 96.4% | 9.1 ± 1.9 mm | 60.4% | 0.6 ± 0.4 mm^2 | 76 | 4.8 ± 2.6 mm | 72.6% | 6.4 ± 2.2 mm | 61.9% |  | LD50 at 168 h [1]: > 10000 mg/kg; LD50 [2]: > 10,000 mg/kg; Ulcer index (total length of all lesions) ([6]; 300 mg/kg): 9.2 ± 3.0 mm; % Inhibition ([6]; 300 mg/kg): 47.4% |
| CC(=O)NCCC(=O)N[C@@H](Cc1c[nH]cn1)C(=O)O [C, N-acetyl-L-carnosine aluminum salt] |  |  |  |  | 1.0 ± 0.7 mm^2 |  |  |  |  |  | 65.5% |  |
| CC(=O)NCCC(=O)N[C@@H](Cc1c[nH]cn1)C(=O)O [D, N-acetyl-L-carnosine aluminum salt] |  |  |  |  | 0.9 ± 0.9 mm^2 |  |  |  |  |  | 69.0% |  |
| CCC(=O)NCCC(=O)N[C@@H](Cc1c[nH]cn1)C(=O)O [E, N-propionyl-L-carnosine aluminum salt] |  |  |  |  | 0.7 ± 0.5 mm^2 | 77.4 |  |  |  |  |  |  |
| CCC(=O)NCCC(=O)N[C@@H](Cc1c[nH]cn1)C(=O)O [F, N-propionyl-L-carnosine aluminum salt] |  |  |  |  | 0.9 ± 0.7 mm^2 |  |  |  |  |  | 71.0% |  |
| CCCCCCC(=O)NCCC(=O)N[C@@H](Cc1c[nH]cn1)C(=O)O [G, N-heptanoyl-L-carnosine aluminum salt] |  |  |  |  | 0.9 ± 1.0 mm^2 | 71 |  |  |  |  |  |  |
| O=C(CCNC(=O)c1ccccc1)N[C@@H](Cc1c[nH]cn1)C(=O)O [H, N-benzoyl-L-carnosine aluminum salt] |  |  |  |  | 1.0 ± 0.9 mm^2 | 67.7 |  |  |  |  |  |  |
| COc1ccccc1C(=O)NCCC(=O)N[C@@H](Cc1c[nH]cn1)C(=O)O [I, N-(o-methoxy)benzoyl-L-carnosine aluminum salt] |  |  |  |  | 1.1 ± 0.8 mm^2 | 64.5 |  |  |  |  |  |  |
| NCCC(=O)N[C@@H](Cc1c[nH]cn1)C(=O)O [L-Carnosine, L-carnosine] |  |  | 17.3 ± 3.2 mm and 18.0 ± 2.7 mm | 28.2% and 21.7% |  | 12.5 | 10.7 ± 2.2 mm and 12.1 ± 2.5 mm | 29.6% and 30.9% | 17.3 ± 3.0 mm and 17.1 ± 3.1 mm | ~ 0% |  | Ulcer index (total length of all lesions) ([6]; 300 mg/kg): 14.2 ± 3.7 mm and 16.0 ± 4.0 mm; % Inhibition ([6]; 300 mg/kg): 6.6% and 8.6% |
| NC(=O)CC[C@H](N)C(=O)O [L-Glutamine, L-glutamine] | 6.0 ± 2.2 mm and 4.5 ± 1.5 mm | 66.1% and 73.2% |  |  |  | 8.3 |  |  | 9.5 ± 4.1 mm and 9.7 ± 3.9 mm | 41.8% and 42.3% |  |  |
| CC(=O)N[C@@H](CCC(N)=O)C(=O)O.[Al] [N-Acetyl-L-glutamine aluminum, N-acetyl-L-glutamine aluminum] |  |  |  |  |  |  |  |  |  |  |  | Ulcer index (total length of all lesions) ([4]; 2,000 mg/kg): 8.5 ± 3.0 mm; % Inhibition ([4]; 2,000 mg/kg): 63.0%; inhibition in vivo at 2000 mg/kg ([5]; Rattus norvegicus, po, 14 h, 2,000 mg/kg, vs control of the same run): 67.7%; Ulcer index (total length of all lesions) ([6]; 2,000 mg/kg): 5.5 ± 4.8 mm; % Inhibition ([6]; 2,000 mg/kg): 68.6% |
| aluminum sucrose sulfate | 3.7 ± 2.1 mm and 2.0 ± 1.1 mm | 79.1% and 88.1% | 14.4 ± 1.5 mm and 10.7 ± 2.1 mm | 40.2% and 53.5% | 0.8 ± 0.6 mm^2 and 0.9 ± 0.5 mm^2 and 0.7 ± 0.8 mm^2 and 0.8 ± 0.9 mm^2 |  | 6.5 ± 6.0 mm and 7.3 ± 6.8 mm | 56.7% and 58.3% | 7.8 ± 3.0 mm and 7.4 ± 2.8 mm | 52.1% and 56.0% | 72.4% and 71.0% and 71.7% and 68.0% |  |
